Key:
[1] = tested on: KU1919.1; experiment: Cell Titer Glo (CTG) proliferation assay, KU1919; assay type: cell-based; conditions: Homo sapiens, KU-19-19; KU1919.1 cells, 72.0 hrs.; read-out: AVE CTG Proliferation KU1919.1 72.0 hrs.
Protocol: (§1) Seed cells in 40 μL of cell culture media into each well of 384-well cell culture plate, spin them at room temperature at 1,000 RPM for 1 minute and then transfer the plates into 37° C. 5% CO2 incubator overnight. Next day, treat cells with 40 nL of diluted compound and return to incubator. After compound treatment for 3 days, Add 30 μL of CellTiter-Glo reagent (Promega) into each well to be detected. Then place the plates at room temperature for 30 min followed by reading on EnVision. Inhibition activity calculated as % DMSO=100×(LumSample-Lum low control)/(Lum high control-Lum low control) where high control is from cells treated with 0.1% DMSO and Low control obtained from PBS only. Use XLFit (equation 201) to calculate IC50 (A+ ((B−A)/(1[…]((x/C)^D)))) where A: Bottom, B: Top, C: IC50, D: Slope.

[2] = tested on: MDAMB468.1; experiment: Cell Titer Glo (CTG) proliferation assay, MDA-MB-468; assay type: cell-based; conditions: Homo sapiens, MDA-MB-468; MDAMB468.1 cells, 72.0 hrs.; read-out: AVE CTG Proliferation MDAMB468.1 72.0 hrs.
Protocol: as §1

Row | IC50 [2] [µM] | Compound | IC50 [1] [µM]
1 | > 10 | CCc1cccc(-c2cnc(C(=O)N3CCC(CN4CCN(CC(=O)NCCNC[C@@H](C(=O)N5CCN(c6ncnc7c6[C@H](C)C[C@H]7O)CC5)c5ccc(Cl)cc5)CC4)CC3)c(NC(=O)CNCc3ccncn3)c2)c1 [Compound I-165] | > 10
2 | > 10 | CCc1cccc(-c2cnc(C(=O)N3CCC(OC4CCN(CC(=O)NCCNC[C@@H](C(=O)N5CCN(c6ncnc7c6[C@H](C)C[C@H]7O)CC5)c5ccc(Cl)cc5)CC4)CC3)c(NC(=O)CNCc3ccncn3)c2)c1 [Compound I-167] | > 10
3 | 1 to 5 | CCOc1cc(OC)ccc1CNCC(=O)N1CCCC(c2cccc(C(=O)N[C@@H](C(=O)N3CCN(CC4CCN(CC(=O)NCCN(C[C@@H](C(=O)N5CCN(c6nncc7c6[C@H](C)C[C@H]7O)CC5)c5ccc(Cl)cc5)C(C)C)CC4)CC3)C3CCCCC3)c2)C1 (some centres unmarked) [Compound I-171] | 0.5 to 1
4 | 5 to 10 | CCc1cccc(-c2cnc(C(=O)N3CCC(CN4CCN(CC(=O)NCCNC[C@@H](C(=O)N5CCN(c6ncnc7c6[C@H](C)C[C@H]7O)CC5)c5ccc(Cl)cc5)CC4)CC3)c(NC(=O)CN3CCOCC3)c2)c1 [Compound I-172] | 5 to 10
5 | – | CC1(C(=O)N2CCCC(c3cccc(C(=O)N[C@@H](C(=O)N4CCC(OC5CCN(CCOCC[C@H](NC(=O)C6(N)CCN(c7ncnc8[nH]ccc78)CC6)c6ccc(Cl)cc6)CC5)CC4)C4CCCCC4)c3)C2)CC1 (some centres unmarked) [Compound I-294] | 1 to 5
6 | – | NC1(C(=O)N[C@@H](CCOCCN2CCC(OC3CCN(C(=O)[C@H](NC(=O)c4cccc(C5CCCN(C(=O)CNC6CC6)C5)c4)C4CCCCC4)CC3)CC2)c2ccc(Cl)cc2)CCN(c2ncnc3[nH]ccc23)CC1 (some centres unmarked) [Compound I-295] | 1 to 5
7 | – | NC1(C(=O)N[C@@H](CCOCCCCCNC(=O)[C@H](NC(=O)c2cccc(C3CCCN(C(=O)C45CC(C4)C5)C3)c2)C2CCCCC2)c2ccc(Cl)cc2)CCN(c2ncnc3[nH]ccc23)CC1 (some centres unmarked) [Compound I-296] | > 10
8 | – | CC1(C(=O)N2CCCC(c3cccc(C(=O)N[C@@H](C(=O)NCCCCCOCC[C@H](NC(=O)C4(N)CCN(c5ncnc6[nH]ccc56)CC4)c4ccc(Cl)cc4)C4CCCCC4)c3)C2)CC1 (some centres unmarked) [Compound I-297] | 5 to 10
9 | – | NC1(C(=O)N[C@@H](CCOCCCCCNC(=O)[C@H](NC(=O)c2cccc(C3CCCN(C(=O)CNC4CC4)C3)c2)C2CCCCC2)c2ccc(Cl)cc2)CCN(c2ncnc3[nH]ccc23)CC1 (some centres unmarked) [Compound I-298] | 1 to 5
10 | – | CC(C)(C)OC(=O)N[C@@H](C(=O)N1CCN(CC23CCC(C(=O)N4CCN(CC[C@H](NC(=O)C5(N)CCN(c6ncnc7[nH]ccc67)CC5)c5ccc(Cl)cc5)CC4)(CC2)CO3)CC1)C1CCCCC1 [Compound I-308] | 1 to 5
11 | – | CC(C)(C)OC(=O)N[C@@H](C(=O)NCCCCS(=O)(=O)NCC[C@H](NC(=O)C1(N)CCN(c2ncnc3[nH]ccc23)CC1)c1ccc(Cl)cc1)C1CCCCC1 [Compound I-309] | 1 to 5
12 | – | CC(C)(C)OC(=O)N[C@@H](C(=O)N1CCC(OC2CCN(CC[C@H](NC(=O)C3(N)CCN(c4ncnc5[nH]ccc45)CC3)c3ccc(Cl)cc3)CC2)CC1)C1CCCCC1 [Compound I-311] | 0.5 to 1
13 | – | CC(C)(C)OC(=O)N[C@@H](C(=O)NCC[C@H](NC(=O)C1(N)CCN(c2ncnc3[nH]ccc23)CC1)c1ccc(Cl)cc1)C1CCCCC1 [Compound I-313] | 1 to 5
14 | – | C[C@@H]1C[C@@H](O)c2ncnc(N3CCN(C(=O)[C@H](CNCCNC(=O)CN4CCC(OC5CCN(C(=O)OC(C)(C)C)CC5)CC4)c4ccc(Cl)cc4)CC3)c21 [Compound I-314] | 1 to 5
15 | – | CC(C)(C)OC(=O)N1CCC(OC2CCN(CC[C@H](NC(=O)C3(N)CCN(c4ncnc5[nH]ccc45)CC3)c3ccc(Cl)cc3)CC2)CC1 [Compound I-316] | 1 to 5
16 | – | C[C@@H]1C[C@@H](O)c2ncnc(N3CCN(C(=O)[C@H](CNCCNC(=O)CNC45CCC(CN6CCN(C(=O)[C@H](NC(=O)c7cccc(C8CCCN(C(=O)CNC9CC9)C8)c7)C7CCCCC7)CC6)(CC4)OC5)c4ccc(Cl)cc4)CC3)c21 (some centres unmarked) [Compound I-326] | 5 to 10
